Results published in ChEMBL document CHEMBL5329201, “Development of 3-acetylindole derivatives that selectively target BRPF1 as new inhibitors of receptor activator of NF-κB ligand (RANKL)-Induced osteoclastogenesis” (Bioorg Med Chem, 2023).
The source made the active and inactive calls. No cut-off for these calls is given here.

How the values were obtained:
[1] = Inhibition of His-tagged human recombinant BRPF1B bromodomain using biotinylated H4 (1 to 21)K5/8/12/16Ac peptide as substrate incubated for 0.5 hrs by AlphaScreen assay
[2] = Anti-osteoclastogensis activity in C57BL/6 mouse BMMC cells assessed as inhibition of RANKL/M-CSF-induced TRAP activity at 1 uM measured after 3 days by colorimetric assay (reference value: 0%); format: functional; conditions: C57BL/6, BMMC, 72 h, time 3 day
[3] = Cytotoxicity against C57BL/6 mouse BMMC cells assessed as cell viability at 10 uM measured after 48 hrs by CCK-8 assay (reference value: 100%); format: toxicity, cell-based; conditions: read-out: Activity
[4] = organism: Homo sapiens; assay: Inhibition of His-tagged human recombinant BRPF1B bromodomain using biotinylated H4 (1 to 21)K5/8/12/16Ac peptide as substrate at 20 uM incubated for 0.5 hrs by AlphaScreen assay relative to control
[5] = organism: Homo sapiens; assay: Inhibition of His-tagged human recombinant BRPF1B bromodomain using biotinylated H4 (1 to 21)K5/8/12/16Ac peptide as substrate at 2 uM incubated for 0.5 hrs by AlphaScreen assay relative to control
[6] = organism: Homo sapiens; assay: Binding affinity to BRPF1B (unknown origin) assessed as change in melting temperature at 10 uM by Differential scanning fluorimetry
[7] = test system: BMMC; assay: Anti-osteoclastogenesis activity in C57BL/6 mouse BMMC cells assessed as reduction of RANKL/M-CSF-induced osteoclast activation and differentiation measured after 5 days by TRAP staining based light microscopic analysis; format: functional, cell-based; conditions: for Activity: time 5.0 day
[8] = test system: BMMC; assay: Anti-osteoclastogenesis activity in C57BL/6 mouse BMMC cells assessed as reduction of RANKL/M-CSF-induced osteoclast activation and differentiation by measuring decrease in F-actin ring formation measured after 5 days by F-actin staining based microscopic analysis; format: functional, cell-based; conditions: time 5.0 day
[9] = test system: BMMC; assay: Anti-osteoclastogenesis activity in C57BL/6 mouse BMMC cells assessed as reduction of RANKL/M-CSF-induced bone resorption of osteoclasts by measuring decrease in bone resorption pit formation treated for 7 days after seeding cells onto bone slices by toluidine blue staining based confocal laser microscopic analysis; format: functional, cell-based; conditions: dose 0.625-10 µM, time 7.0 day
[10] = test system: BMMC; assay: Anti-osteoclastogenesis activity in C57BL/6 mouse BMMC cells assessed as reduction of RANKL/M-CSF-induced TRAP mRNA expression at 1 uM measured after 3 days by qRT-PCR analysis; format: functional, cell-based; conditions: time 3.0 day
[11] = test system: BMMC; assay: Anti-osteoclastogenesis activity in C57BL/6 mouse BMMC cells assessed as reduction of RANKL/M-CSF-induced CTSK mRNA expression at 1 uM measured after 3 days by qRT-PCR analysis; format: functional, cell-based; conditions: time 3.0 day
[12] = test system: BMMC; assay: Anti-osteoclastogenesis activity in C57BL/6 mouse BMMC cells assessed as reduction of RANKL/M-CSF-induced NFATc1 mRNA expression at 1 uM measured after 3 days by qRT-PCR analysis; format: functional, cell-based; conditions: time 3.0 day
[13] = test system: BMMC; assay: Anti-osteoclastogenesis activity in C57BL/6 mouse BMMC cells assessed as reduction of RANKL/M-CSF-induced c-fos mRNA expression measured after 3 days by qRT-PCR analysis; format: functional, cell-based; conditions: dose 2.5-10 µM, time 3.0 day
[14] = test system: BMMC; assay: Anti-osteoclastogenesis activity in C57BL/6 mouse BMMC cells assessed as reduction of RANKL/M-CSF-induced c-fos expression at 1 to 10 uM measured after 3 days by Western blot analysis; format: functional, cell-based; conditions: dose 1-10 µM, time 3.0 day
[15] = test system: BMMC; assay: Anti-osteoclastogenesis activity in C57BL/6 mouse BMMC cells assessed as reduction of RANKL/M-CSF-induced osteoclast activation and differentiation by measuring F-actin ring formation with fewer and smaller nuclei measured after 5 days by F-actin staining based microscopic analysis; format: functional, cell-based; conditions: time 5.0 day
[16] = test system: BMMC; assay: Anti-osteoclastogenesis activity in C57BL/6 mouse BMMC cells assessed as reduction of RANKL/M-CSF-induced bone resorption of osteoclasts by measuring decrease in pit areas treated for 7 days after seeding cells onto bone slices by toluidine blue staining based confocal laser microscopic analysis; format: functional, cell-based; conditions: dose 0.625-10 µM, time 7.0 day

| Compound | IC50 [1] [nM] | inhibition at 1 µM [2] [%] | viability at 48 h, 10 µM [3] [%] | inhibition [4] [%] | other results |
| --- | --- | --- | --- | --- | --- |
| CC(=O)c1c(C)[nH]c2c(N3CCCC3)cc(-c3cccnc3)cc12 | 233 | 40 | 101 | – | – |
| COC(=O)c1cc(NC(=O)c2ccccc2)c2[nH]c(C)c(C(C)=O)c2c1 | – | – | – | 100 | inhibition [5]: 11.5% |
| CCOC(=O)Nc1cc(C(=O)Nc2ccccc2)cc2c(C(C)=O)c(C)[nH]c12 | 1700 | – | – | – | – |
| CCOC(=O)Nc1cc(C(=O)OC)cc2c(C(C)=O)c(C)[nH]c12 | 558 | – | – | 100 | ΔTm [6]: 5.39 °C; inhibition [5]: 93.1% |
| COC(=O)c1cc(NC(=O)Nc2ccccc2)c2[nH]c(C)c(C(C)=O)c2c1 | – | – | – | 100 | inhibition [5]: 17.6% |
| CCOC(=O)Nc1cc(-c2ccncc2)cc2c(C(C)=O)c(C)[nH]c12 | 109 | 66.5 | 107 | – | – |
| COc1ccccc1S(=O)(=O)Nc1cc(-c2cccnc2)cc2c(C(C)=O)c(C)[nH]c12 | 1090 | 74.2 | 92.7 | – | Activity [7]: Dose-Dependent Effect |
| CCOC(=O)Nc1cc(-c2ccccn2)cc2c(C(C)=O)c(C)[nH]c12 | 109 | 38.8 | 110 | – | – |
| CCOC(=O)Nc1cc(C(=O)NC)cc2c(C(C)=O)c(C)[nH]c12 | 908 | 36.8 | 92.6 | – | – |
| CCOC(=O)Nc1cc(-c2ccccn2)cc2cc(C)[nH]c12 | > 10000 | – | – | – | – |
| CCCC(=O)Nc1cc(C(=O)OC)cc2c(C(C)=O)c(C)[nH]c12 | – | – | – | 100 | inhibition [5]: 38.5% |
| CCOC(=O)Nc1cc(C(=O)c2ccccc2)cc2c(C(C)=O)c(C)[nH]c12 | 743 | 66.8 | 119 | – | – |
| COC(=O)c1cc(NC(=O)c2ccc(Cl)cc2)c2[nH]c(C)c(C(C)=O)c2c1 | – | – | – | – | ΔTm [6]: 1.92 °C |
| CC(=O)c1c(C)[nH]c2c(N(C)C)cc(-c3nccs3)cc12 | 90 | 44.1 | 92.6 | – | – |
| CCOC(=O)Nc1cc(C(=O)Nc2nccs2)cc2c(C(C)=O)c(C)[nH]c12 | 309 | 0 | 104 | – | – |
| CC(=O)c1c(C)[nH]c2c(NC3CNC3)cc(-c3cccnc3)cc12 | 3430 | – | – | – | – |
| COC(=O)c1cc(NC(=O)c2ccccc2OC)c2[nH]c(C)c(C(C)=O)c2c1 | – | – | – | 28.3 | – |
| COC(=O)c1cc(NC(=O)Nc2cccc(C(F)(F)F)c2)c2[nH]c(C)c(C(C)=O)c2c1 | – | – | – | 82.3 | – |

| Compound | IC50 [1] [nM] | inhibition at 1 µM [2] [%] | viability at 48 h, 10 µM [3] [%] | inhibition [4] [%] | other results |
| --- | --- | --- | --- | --- | --- |
| CC(=O)c1c(C)[nH]c2c(N(C)C)cc(-c3ccccn3)cc12 | 540 | 100 | 28.9 | – | – |
| CCOC(=O)Nc1cc(C(=O)NC2CCCC2)cc2c(C(C)=O)c(C)[nH]c12 | 1830 | – | – | – | – |
| CCOC(=O)Nc1cc(-c2nccs2)cc2c(C(C)=O)c(C)[nH]c12 | 294 | 41.3 | 111 | – | – |
| CCOC(=O)Nc1cc(-c2ccccc2)cc2c(C(C)=O)c(C)[nH]c12 | 206 | 0 | 110 | – | – |
| CCOC(=O)CNc1cc(C(=O)OC)cc2c(C(C)=O)c(C)[nH]c12 | – | – | – | – | ΔTm [6]: 5.18 °C |
| CC(=O)c1c(C)[nH]c2c(N)cc(-c3cccnc3)cc12 | 1120 | 0 | 109 | – | – |
| CCNC(=O)Nc1cc(C(=O)OC)cc2c(C(C)=O)c(C)[nH]c12 | – | – | – | 100 | inhibition [5]: 42.2% |
| CCNC(=O)Nc1cc(-c2cccnc2)cc2c(C(C)=O)c(C)[nH]c12 | 1440 | – | – | – | – |
| CC(=O)c1c(C)[nH]c2c(N(C)C)cc(-c3cccnc3)cc12 | 173 | 26.2 | 104 | – | – |
| COC(=O)c1cc(NC(=O)Nc2ccccc2OC)c2[nH]c(C)c(C(C)=O)c2c1 | – | – | – | 91.9 | – |
| COc1ccccc1C(=O)Nc1cc2c(cc1N1CCCC1)n(C)c(=O)n2C | – | – | – | 100 | inhibition [5]: 101% |
| CCOC(=O)Nc1cc(C(=O)OC)cc2c(C(C)=O)c[nH]c12 | – | – | – | 13.1 | – |
| CCOC(=O)Nc1cc(-c2cccnc2)cc2c(C(C)=O)c(C)[nH]c12 | 102 | 73.8 | 113 | – | IC50 ([7]; C57BL/6, BMMC, 120 h): 190 nM; Activity [7]: Dose-Dependent Effect; Activity [8]: Active; Activity [9]: Dose-Dependent Effect; Activity [10]: Active; Activity [11]: Active; Activity [12]: Active; Activity [13]: Dose-Dependent Effect; Activity [14]: Active; Activity [15]: Active; Activity [16]: Dose-Dependent Effect |
| CCOC(=O)Nc1cc(C(=O)OC)cc2c(C(C)=O)c(C)n(C)c12 | – | – | – | 99.8 | inhibition [5]: 17.6% |
| COC(=O)c1cc(NS(=O)(=O)c2ccccc2OC)c2[nH]c(C)c(C(C)=O)c2c1 | – | – | – | 100 | inhibition [5]: 60% |
| COC(=O)c1cc(NS(=O)(=O)c2ccccc2)c2[nH]c(C)c(C(C)=O)c2c1 | – | – | – | 100 | inhibition [5]: 18.3% |
| CC(=O)c1c(C)[nH]c2c(NC3CCNCC3)cc(-c3cccnc3)cc12 | 442 | 57.1 | 94.9 | – | – |
| CC(=O)c1c(C)[nH]c2c(N(C)C)cc(-c3ccncc3)cc12 | 70 | 67.1 | 110 | – | – |
